Assay results taken from PubChem BioAssay AID1996.
In brackets after ≈: the same amount, converted by molar mass.

Details: buffer; pH 7.4; 200.0 µM

SMILES	solubility kinetic [µg/mL]
CCN(CC)C1CCN(c2nc3nonc3nc2NCCOC)C1 (centres undefined)	46.8 (≈ 140 µM)
CN(CC(=O)NCCCN1CCOCC1)S(=O)(=O)c1ccc(Cl)cc1	> 58.5
Cn1cnc([N+](=O)[O-])c1Sc1ncnc2nc[nH]c12	> 41.6
CCC(=O)N1CCN=C1SCc1cccc(F)c1	> 39.9
CC(=O)Nc1ccc(C(=O)COC(=O)C2CC2C)c(F)c1 (centres undefined)	> 44
Cc1ccc(-c2onc3ccc(Br)cc23)cc1	< 0.6
CC1Cc2ccccc2N1CC(=O)NC(=O)NC1CCCCC1 (centres undefined)	24.6 (≈ 78 µM)
CC(C)C(=O)Nc1ccc2c(c1)nc(CCN1CCCCC1)n2C	> 49.3
COc1cccc(CC(=O)OCC(=O)NCc2ccc3c(c2)OCO3)c1	> 53.6
CCCCN(Cc1cc2cc(C)ccc2[nH]c1=O)C(=O)c1ccccn1	> 52.4
NS(=O)(=O)c1ccc(CCNC(=O)c2cnccn2)cc1	> 46
CCCCOc1ccc(CC2CCC(=O)NC2=O)cc1 (centres undefined)	10.2 (≈ 37 µM)
COc1ccc(Nc2nc(N)c([N+](=O)[O-])c(NCCO)n2)cc1	46.4 (≈ 145 µM)
CC(OC(=O)C1=COCCO1)C(=O)NC1(C#N)CCCCC1 (centres undefined)	45.7 (≈ 148 µM)
CNCCCC12CCC(c3ccccc31)c1ccccc12	38.6 (≈ 139 µM)
C=CCNC(=O)c1cnc(-c2ccccc2)nc1-c1ccccc1	0.7 (≈ 2.22 µM)
O=c1onc(-c2ccc(Cl)cc2Cl)n1-c1cccnc1	19.5 (≈ 63.3 µM)
COc1cc(C(=O)OCCNC(=O)c2cccnc2)cc(OC)c1OC.Cl	> 59.5
CC1CCC(NC(=O)COC(=O)c2cccnc2Cl)CC1 (centres undefined)	> 46.6
Cc1cc(Cl)ccc1OCC(=O)Nc1cccnc1	35.3 (≈ 128 µM)
CN1CCN(c2ccc(CNS(=O)(=O)c3cccc(F)c3)cc2)CC1	6.7 (≈ 18.4 µM)
Cc1cccc(NC(=O)CCn2c(=O)oc3ccccc32)c1	38.2 (≈ 129 µM)
CCc1nccn1Cc1cc(C=O)ccc1OC.Cl	> 42.1
COc1ccc(NC(=O)c2ccco2)cc1NC(=O)c1cccc(F)c1	< 0.4

SMILES	solubility kinetic [µg/mL]
CC1(c2ccc(Cl)cc2)NC(=O)N(CC(=O)N2CCc3ccccc32)C1=O (centres undefined)	1.5 (≈ 3.91 µM)
O=C(CNC(=O)C1CCCCC1)NC1CCCCC1	> 40
N#Cc1c(-c2ccccc2)nc(SCc2ccc([N+](=O)[O-])cc2)[nH]c1=O	52 (≈ 143 µM)
Cc1cccc(N2CCN(C(=O)NC3CCCCC3)CC2)c1C	0.7 (≈ 2.22 µM)
CCS(=O)(=O)N1CCC(C(=O)Oc2ccccc2Cl)CC1	46 (≈ 139 µM)
O=C(CN1CCCCCC1)Nc1ccc(Br)cn1	33.7 (≈ 108 µM)
CN(C(=O)CC1C(=O)NCCN1Cc1ccc(F)cc1)C1CCOCC1 (centres undefined)	> 54.5
COc1cccc(C2NC(=O)NC(C)=C2C(=O)OCC2CCCO2)c1 (centres undefined)	44.9 (≈ 130 µM)
Cc1ccc(C(C)C)cc1OCC(=O)NCCCn1ccnc1	> 47.3
Cc1c(C(=O)N2CCOCC2)cc(C(C)(C)C)n1-c1ccccc1	45.3 (≈ 139 µM)
N/C(=N/O)c1nc(N2CCCC2)nc(N2CCCC2)n1	> 41.6
CC(C)(C)C(=O)N(Cc1ccccc1)c1ccccn1	40.2 (≈ 150 µM)
CC(NCCC(Cc1ccccc1)c1ccco1)c1ccccc1 (centres undefined)	> 47.9
CC(=O)c1ccc(NC(=O)CN2CCCCCC2)cc1	> 41.2
O=C(O)/C=C/C(=O)Nc1ccc(OC(F)(F)F)cc1Br	> 53.1
COc1ccc(NC(=O)C2=NN(C3CCS(=O)(=O)C3)C(=O)CC2)cc1S(N)(=O)=O (centres undefined)	> 66.7
O=C(c1ccco1)N1CCN(C(=O)c2ccccc2OCc2ccccc2)CC1	> 58.6
CCOc1ccc(N2C(=O)C3C4C=CC([C@H]5CC45)[C@@H]3C2=O)cc1 (some centres undefined)	8.5 (≈ 27.5 µM)
CCn1cnc2cc([N+](=O)[O-])ccc21	> 28.7
COc1ccc(Nc2c3c(nc4ccc(C)cc24)CCC3)cc1.Cl	36.6
COc1ccccc1C(NC(C)=O)c1c(O)ccc2ccc(O)cc12 (centres undefined)	> 50.6
Cc1cccc(NC(=O)c2ccc(COc3ccccc3)o2)n1	4.8 (≈ 15.6 µM)
CC(C)COc1nc2ccccc2nc1N1CCN(C)CC1	33.9 (≈ 113 µM)
O=C(CN1CCCCC1)N1CCc2ccccc21	36.6 (≈ 150 µM)

SMILES	solubility kinetic [µg/mL]
CCc1nc(SCC(=O)OC)c2c3c(sc2n1)COC(C)(C)C3	7.4 (≈ 21 µM)
OC(CNC1Cc2ccccc2C1)COc1ccc(F)cc1 (centres undefined)	44.3 (≈ 147 µM)
COc1ccc(C(=O)O)cc1S(=O)(=O)Nc1ccc(C)cc1	> 48.2
Cc1cc(Nc2ccc(C(=O)O)cc2)nc(N)n1	28 (≈ 115 µM)
COc1cccc(CN(C)C(=O)c2csc3c2CCCC3)c1OC	46.5 (≈ 135 µM)
CC(=O)Nc1ccc(-n2c(C)ccc2C)cc1	> 34.2
O=C(O)CSc1cn(Cc2ccccc2)c2ccccc12	> 44.6
CSc1ccc(Cl)c(C(=O)NCCCn2ccnc2)c1	> 46.5
Cc1nn(C)cc1S(=O)(=O)N1CCCCC1C (centres undefined)	> 38.6
O=[N+]([O-])c1cc(C(F)(F)F)cc([N+](=O)[O-])c1N1CCCNCC1	37.9 (≈ 113 µM)
O=C1N=C(N2CCOCC2)S/C1=C\c1cccs1	> 42.1
O=[N+]([O-])c1ccc(N2CCN(Cc3ccc4c(c3)OCO4)CC2)nc1	7 (≈ 20.4 µM)
O=C(N/N=C/c1ccccc1O)C1CCCC1	> 34.8
COc1cc(OC)c(CN2CCCN(C)CC2)cc1Br	44.9 (≈ 131 µM)
Cc1cc(Br)cc(C=Nc2ccc(N3CCOCC3)cc2)c1O	6.1 (≈ 16.3 µM)
CCN(CC(=O)N1CCCC1)S(=O)(=O)c1cc(C)ccc1OC	49.5 (≈ 145 µM)
COc1ccc(Nc2nnc(SC(C)C(=O)NC3CC3)s2)cc1 (centres undefined)	> 52.6
Cc1ccc2nc(SCC(=O)Nc3ncccn3)[nH]c2c1	> 44.9
COc1ccc(-c2nc3ncccc3n2O)cc1	> 36.2
O=C1c2ccccc2NC(c2cccc(O)c2)N1O (centres undefined)	> 38.4
Cc1cc(NC(=O)c2cc(S(=O)(=O)N3CCCCC3)ccc2C)no1	14.2 (≈ 39.1 µM)
O=S(=O)(c1ccccc1)c1nc(-c2ccccc2)oc1N1CCCC1	1.3 (≈ 3.67 µM)
Cn1cc(S(=O)(=O)Oc2ccccc2)c(=O)n(C)c1=O	39.5 (≈ 133 µM)
CC(=O)c1cccc(Nc2cc(C)nc3ccccc23)c1.Cl	27.8

SMILES	solubility kinetic [µg/mL]
Cc1ccc(NC(=O)Nc2ncnc3nc[nH]c23)cc1	6.3 (≈ 23.5 µM)
COc1ccccc1C1(CCNC(C)c2cccs2)CCOC(C(C)C)C1 (centres undefined)	54.4 (≈ 140 µM)
O=C(Nc1ccc(Cl)cc1F)C1CC(=O)N(Cc2ccco2)C1 (centres undefined)	> 50.5
O=C(NCCCCc1ccccc1)c1ccc(Br)cc1	< 0.7
Cc1ccc([N+](=O)[O-])cc1S(=O)(=O)Nc1cccc(S(=O)(=O)Nc2ccccc2C(=O)O)c1	> 73.7
CN1C(=O)CN=C(c2ccccc2Cl)c2cc(Br)ccc21	51.9 (≈ 143 µM)
O=C(CSc1cccc[n+]1[O-])C12CC3CC(CC(C3)C1)C2	> 45.5
O=C(NC1CCCCCC1)C1CC(=O)N(c2ccc(Cl)cc2)C1 (centres undefined)	6.3 (≈ 18.8 µM)
Cc1csc(NC(=O)c2cc(=O)[nH]c3ccccc23)n1	10.5 (≈ 36.8 µM)
Cc1ccc2[nH]c(CNC(=O)c3ccccc3F)cc2c1	5.4 (≈ 19.1 µM)
Cc1ccc(C(=O)NCc2ccc3c(c2)CCO3)cc1C	31.2 (≈ 111 µM)
O=C(Cc1ccc(Cl)cc1)NCCc1ccc(F)cc1	19.4 (≈ 66.5 µM)
Cc1c(C(=O)Nc2ccccc2)cc(-c2ccccc2)n1CCCN1CCOCC1	36.8 (≈ 91.2 µM)
O=c1[nH]cnc2sc3c(c12)CCC3	> 28.8
CCC(OC(=O)CN1C(=O)c2ccccc2C1=O)C(=O)NC1CCCC1 (centres undefined)	52.1 (≈ 145 µM)
CC(=O)C(Sc1ncnc2sc3c(c12)CCCC3)C(C)=O	38.6 (≈ 120 µM)
CCOc1ccc(C(=O)NC2CCCCCCC2)cc1	2.5 (≈ 9.08 µM)
CC(Sc1cccc[n+]1[O-])C(=O)Nc1cc(Cl)c(Cl)cc1Cl (centres undefined)	53.5 (≈ 142 µM)
CCCC1(CCC)NC(=O)N(CC(=O)Nc2ccc3c(c2)OCCO3)C1=O	> 56.3
O=C(c1ccc(NC(=S)NCc2ccco2)cc1)N1CCOCC1	41.6 (≈ 120 µM)
CC(=O)Nc1nc(-c2cc([N+](=O)[O-])cs2)cs1	0.7 (≈ 2.6 µM)
O=C(N1CCCCC1)C1(c2ccccc2)CCCCC1	3.6 (≈ 13.3 µM)
CCCc1nnc(SCC(=O)NC2CC2)n1C	> 38.2
CCc1ccc(CN2CCN(c3ncccn3)CC2)cc1	29.9 (≈ 106 µM)

SMILES	solubility kinetic [µg/mL]
N#Cc1cc([N+](=O)[O-])ccc1NC(=O)COC(=O)C1CCC(=O)N1 (centres undefined)	> 49.8
COc1cc([N+](=O)[O-])cc2sc(NC(=O)C(C)(C)C)nc12	< 0.2
CC(=O)NC1CCN(CC(=O)Nc2nccs2)CC1	40.5 (≈ 143 µM)
Cc1cc(C(=O)NC2CCCCCCC2)ccc1[N+](=O)[O-]	1.1 (≈ 3.79 µM)
COc1ccc(S(=O)(=O)N2CCOCC2)cc1NC(=O)C1CC1	> 51.1
CCCCOc1ccc(-c2c(C#N)c(N)[nH]c(=S)c2C#N)cc1	35.6 (≈ 110 µM)
CCc1nnc(NC(=O)CN2CC(C)OC(C)C2)s1 (centres undefined)	> 42.7
Cc1cc(C)cc(NC(=O)Nc2ccc3c(c2)CCC3)c1	< 0.3
Cc1ccnc(Nc2nc(-c3ccc(F)cc3)cs2)c1	< 0.2
COc1ccccc1-n1c(-c2ccc(F)cc2)coc1=O	2.9 (≈ 10.2 µM)
Cc1onc(-c2ccccc2)c1C(=O)N1CCCC(C(F)(F)F)C1 (centres undefined)	42.7 (≈ 126 µM)
COc1ccc(-n2c(C)nc3sc4c(c3c2=O)CCCC4)cc1	6.4 (≈ 19.6 µM)
CN1C(=O)/C(=C/c2ccc(OCc3cccc(F)c3)cc2)NC1=S	< 0.4
NC(=O)CN1C(=O)NC(c2ccccc2)(c2ccccc2)C1=O	> 46.4
CN1CCCCCC1=Nc1ccc([N+](=O)[O-])cc1.Cl	> 42.6
CN(C)c1ccc(P(=O)(OC2CCCCC2)C(O)c2ccccn2)cc1 (centres undefined)	> 56.2
CC1CCCCN1C(=O)COC(=O)/C=C/c1ccc2ccccc2n1 (centres undefined)	25.1 (≈ 74.2 µM)
COCCCN1C(=O)CC(C(=O)OC)=C1C	> 34.1
CC(=O)N/C(=C\c1ccc(F)cc1)C(=O)OCc1ccccc1	> 47
N#Cc1c(N)nc2c(c1N)CC(C(F)(F)F)O2 (centres undefined)	> 36.6
CCOC(=O)C(=O)Nc1ncc(Cl)s1	34.2 (≈ 146 µM)
Cc1ccc(NC(=O)CN2CCc3ccccc3C2)cc1F	23.1 (≈ 77.4 µM)
Cc1ccc2oc(C(=O)N3CCN(C)C[C@@H]3C(C)C)c(C)c2c1	34.3 (≈ 109 µM)
